Experimental data reported in PubChem BioAssay (NCI).
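Growth conditions: 96-well plates. Treatment: test compound, 48 hours, 5 concentrations. Analysis: linear interpolation between bracketing concentrations; unreached endpoints set to highest concentration. GI50 is the concentration that inhibits growth by half. TGI: concentration producing complete growth inhibition.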

How the values were obtained:
Assay in all cases: DTP human tumour cell line panel, 48 h
NCI-H460 lung = system: NCI-H460 lung
DU-145 prostate = system: DU-145 prostate
OVCAR-4 ovarian = system: OVCAR-4 ovarian
SK-MEL-2 melanoma = system: SK-MEL-2 melanoma
BT-549 breast = system: BT-549 breast
SK-OV-3 ovarian = system: SK-OV-3 ovarian
K-562 leukemia = system: K-562 leukemia
OVCAR-3 ovarian = system: OVCAR-3 ovarian
IGROV1 ovarian = system: IGROV1 ovarian
HL-60(TB) leukemia = system: HL-60(TB) leukemia
MCF7 breast = system: MCF7 breast
ACHN renal = system: ACHN renal
NCI/ADR-RES ovarian = system: NCI/ADR-RES ovarian
MDA-MB-231 breast = system: MDA-MB-231 breast
UACC-62 melanoma = system: UACC-62 melanoma
MDA-MB-435 = system: MDA-MB-435
HCT-116 colon = system: HCT-116 colon
SK-MEL-5 melanoma = system: SK-MEL-5 melanoma
UACC-257 melanoma = system: UACC-257 melanoma
OVCAR-5 ovarian = system: OVCAR-5 ovarian
SF-295 CNS = system: SF-295 CNS
KM12 colon = system: KM12 colon
NCI-H522 lung = system: NCI-H522 lung
EKVX NSCLC = system: EKVX NSCLC
RXF 393 renal = system: RXF 393 renal
HOP-62 NSCLC = system: HOP-62 NSCLC
SR leukemia = system: SR leukemia
SK-MEL-28 melanoma = system: SK-MEL-28 melanoma
PC-3 prostate = system: PC-3 prostate
UO-31 renal = system: UO-31 renal
786-0 renal = system: 786-0 renal
LOX IMVI melanoma = system: LOX IMVI melanoma
MOLT-4 leukemia = system: MOLT-4 leukemia
NCI-H23 lung = system: NCI-H23 lung
U251 CNS = system: U251 CNS
SF-268 CNS = system: SF-268 CNS
SW-620 colon = system: SW-620 colon
T-47D breast = system: T-47D breast
HS 578T breast = system: HS 578T breast
NCI-H226 lung = system: NCI-H226 lung
MALME-3M melanoma = system: MALME-3M melanoma
HCT-15 colon = system: HCT-15 colon
OVCAR-8 ovarian = system: OVCAR-8 ovarian
SF-539 CNS = system: SF-539 CNS
HOP-92 NSCLC = system: HOP-92 NSCLC
COLO 205 colon = system: COLO 205 colon
HT29 colon = system: HT29 colon
A549 NSCLC = system: A549 NSCLC
CAKI-1 renal = system: CAKI-1 renal
M14 melanoma = system: M14 melanoma
HCC-2998 colon = system: HCC-2998 colon
RPMI-8226 leukemia = system: RPMI-8226 leukemia
TK-10 renal = system: TK-10 renal
SN12C renal = system: SN12C renal
CCRF-CEM leukemia = system: CCRF-CEM leukemia
SNB-75 CNS = system: SNB-75 CNS
SNB-19 CNS = system: SNB-19 CNS

## O=C1CC(=O)N(C(=O)c2nn(-c3ccc(Cl)cc3)cc2O)N1
NCI-H460 lung
  GI50: 345 nM
  TGI: > 100000 nM
DU-145 prostate
  GI50: 923 nM
  TGI: > 100000 nM
OVCAR-4 ovarian
  GI50: 1510 nM
  TGI: > 100000 nM
SK-MEL-2 melanoma
  GI50: > 100000 nM
  TGI: > 100000 nM
BT-549 breast
  GI50: 296 nM
  TGI: > 64500 nM
SK-OV-3 ovarian
  GI50: 1850 nM
  TGI: > 100000 nM
K-562 leukemia
  GI50: 292 nM
  TGI: 8150 nM
OVCAR-3 ovarian
  GI50: 1310 nM
  TGI: 6160 nM
IGROV1 ovarian
  GI50: 378 nM
  TGI: 20200 nM
HL-60(TB) leukemia
  GI50: 751 nM
  TGI: 4080 nM
MCF7 breast
  GI50: 1240 nM
  TGI: > 100000 nM
ACHN renal
  GI50: 544 nM
  TGI: > 100000 nM
NCI/ADR-RES ovarian
  GI50: 1160 nM
  TGI: > 100000 nM
MDA-MB-231 breast
  GI50: 1840 nM
  TGI: > 100000 nM
UACC-62 melanoma
  GI50: 381 nM
  TGI: 9410 nM
MDA-MB-435
  GI50: 355 nM
  TGI: > 100000 nM
HCT-116 colon
  GI50: 340 nM
  TGI: > 100000 nM
SK-MEL-5 melanoma
  GI50: 1690 nM
  TGI: 12000 nM
UACC-257 melanoma
  GI50: 800 nM
OVCAR-5 ovarian
  GI50: 4170 nM
  TGI: > 100000 nM
SF-295 CNS
  GI50: 170 nM
  TGI: > 100000 nM
KM12 colon
  GI50: 1030 nM
  TGI: > 100000 nM
NCI-H522 lung
  GI50: 299 nM
  TGI: 3170 nM
EKVX NSCLC
  GI50: 845 nM
  TGI: > 100000 nM
RXF 393 renal
  GI50: 191 nM
  TGI: > 47000 nM
HOP-62 NSCLC
  GI50: 500 nM
  TGI: > 100000 nM
SR leukemia
  GI50: 260 nM
  TGI: 5040 nM
SK-MEL-28 melanoma
  GI50: 2820 nM
  TGI: > 100000 nM
PC-3 prostate
  GI50: 360 nM
  TGI: > 100000 nM
UO-31 renal
  GI50: 529 nM
  TGI: > 100000 nM
786-0 renal
  GI50: 3760 nM
  TGI: > 64500 nM
LOX IMVI melanoma
  GI50: 1150 nM
  TGI: > 100000 nM
MOLT-4 leukemia
  GI50: 403 nM
  TGI: > 41700 nM
NCI-H23 lung
  GI50: 493 nM
  TGI: > 100000 nM
U251 CNS
  GI50: 147 nM
  TGI: > 100000 nM
SF-268 CNS
  GI50: 461 nM
  TGI: > 100000 nM
SW-620 colon
  GI50: 2190 nM
  TGI: > 100000 nM
T-47D breast
  GI50: 431 nM
  TGI: > 71600 nM
HS 578T breast
  GI50: 136 nM
  TGI: > 100000 nM
NCI-H226 lung
  GI50: 724 nM
  TGI: > 96600 nM
MALME-3M melanoma
  GI50: 703 nM
  TGI: 46500 nM
HCT-15 colon
  GI50: 486 nM
  TGI: > 100000 nM
OVCAR-8 ovarian
  GI50: 636 nM
  TGI: > 100000 nM
SF-539 CNS
  GI50: 371 nM
  TGI: > 63000 nM
HOP-92 NSCLC
  GI50: 508 nM
  TGI: > 100000 nM
COLO 205 colon
  GI50: 748 nM
  TGI: 3990 nM
HT29 colon
  GI50: 585 nM
  TGI: > 50400 nM
A549 NSCLC
  GI50: 360 nM
  TGI: > 100000 nM
CAKI-1 renal
  GI50: 639 nM
  TGI: 12700 nM
M14 melanoma
  GI50: 651 nM
  TGI: 27800 nM
HCC-2998 colon
  GI50: 4170 nM
  TGI: > 100000 nM
RPMI-8226 leukemia
  GI50: 370 nM
  TGI: 11100 nM
TK-10 renal
  GI50: 350 nM
  TGI: > 65200 nM
SN12C renal
  GI50: 494 nM
  TGI: > 100000 nM
CCRF-CEM leukemia
  GI50: 410 nM
  TGI: 16700 nM
SNB-75 CNS
  GI50: 242 nM
  TGI: > 100000 nM
SNB-19 CNS
  GI50: 500 nM
  TGI: > 100000 nM
